US20250051316A1, “2-(ARYL-2-YL) […] […], PREPARATION METHOD THEREFOR AND APPLICATION THEREOF” (SHANGHAI HANSOH BIOMEDICAL CO., LTD., priority 2021, published 2025)

Molecular target: T1, ADRA1A receptor (Homo sapiens, UniProt P35348)
T1 construct: expressed in transfected cells
T1 sequence (P35348 1-466): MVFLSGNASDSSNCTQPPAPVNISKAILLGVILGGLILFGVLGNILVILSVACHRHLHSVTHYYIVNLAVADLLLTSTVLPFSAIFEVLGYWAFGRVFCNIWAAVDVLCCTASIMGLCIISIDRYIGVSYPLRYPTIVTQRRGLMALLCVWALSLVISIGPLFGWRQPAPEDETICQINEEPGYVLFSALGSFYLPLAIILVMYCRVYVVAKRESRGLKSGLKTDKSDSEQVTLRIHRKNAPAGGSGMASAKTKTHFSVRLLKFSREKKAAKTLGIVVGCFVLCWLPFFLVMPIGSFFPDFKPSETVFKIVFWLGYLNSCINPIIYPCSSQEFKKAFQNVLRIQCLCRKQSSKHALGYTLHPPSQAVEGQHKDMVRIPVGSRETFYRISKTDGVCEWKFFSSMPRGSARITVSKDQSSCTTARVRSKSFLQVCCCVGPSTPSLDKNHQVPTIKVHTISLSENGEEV
Experiment: Effect on calcium current in cells which stably express ADRA1A receptor
Assay type: cell-based
Procedure: Test Example 4. Determination of the Effect of the Present Compounds on Calcium Current in the Cells which Stably Express ADRA1A Receptor
Determination of the activation effect of the compounds on ADRA1A receptors.
1) Flp In-CHO-ADRA1A Stable Pool cell lines were cultured in complete medium at 37° C., 5% CO2 to 70%-90% fusion.
2) Complete culture medium: Ham's F12K+10% FBS+1*Penicillin−Streptomycin+600 μg/mL Hygromycin B; Cell inoculation medium: Ham's F12K++10% FBS; Experimental buffer: 1×HBSS+20 mM HEPES
3) After TrypLE digestion, the cells were re-suspended in the inoculation medium and inoculated in 384 well cell culture plate (Corning, 3764). 7000 cells were inoculated into each well and incubated overnight at 37° C. and 5% CO2.
4) 20× Component A was freeze-thaw to room temperature, and then diluted with experimental buffer to 2× working concentration including 5 mM Probenecid, which was then placed at room temperature for use.
5) The cell culture plate was taken out, and let to stand at room temperature for 10 minutes. The plate was subject to inverted centrifugation at 200 g, and RT centrifugation for 1 second, and then 20 μL Assay buffer was quickly added to the cell culture plate. Then 20 μL 2× Component A containing 5 mM Probenecid was added to each experimental well, which was centrifuged by RT at 200 g for 3-5 seconds, and incubated at 37° C. for 2 hours.
6) The working solution (5×) for the compound to be tested was prepared and placed and at room temperature for use.
7) The cell culture plate was taken out and let to stand at room temperature for 10 minutes.
8) 10 μL diluteSd compound working solution in step 6) was added to each the experimental well using FLIPR Tetra and data were collected.
[formula] • 5) EC50 of the compounds was calculated by GraphPad nonlinear fitting formula:
[formula] • X: Log value of the compound concentration; Y: Activation %

Structure (SMILES) | EC50 [nM]
[2H]C1([2H])CO[C@@H](c2ccc(F)cn2)CN1 (single isomer, unassigned) [Example 17-2, 2-(5-fluoropyridin-2-yl)morpholin-5,5-d2] | 3170
[2H]C1([2H])COC(c2cccc(C)n2)CN1 (single isomer, unassigned) [Example 10-2, 2-(6-Methylpyridin-2-yl)morpholin-5,5-d2] | 1170
[2H]C1([2H])CO[C@H](c2ccc(F)cc2)CN1 (single isomer, unassigned) [Example 33-1, 2-(4-Fluorophenyl)morpholin-5,5-d2] | 1410
